This assay has as its target T1, K. phaffii Adh2p (Komagataella pastoris, UniProt A0A1B2JBQ8).
T1 construct: gene ADH2; purified natively from wild-type K. phaffii; 40 kDa band
T1 sequence (A0A1B2JBQ8 1-350): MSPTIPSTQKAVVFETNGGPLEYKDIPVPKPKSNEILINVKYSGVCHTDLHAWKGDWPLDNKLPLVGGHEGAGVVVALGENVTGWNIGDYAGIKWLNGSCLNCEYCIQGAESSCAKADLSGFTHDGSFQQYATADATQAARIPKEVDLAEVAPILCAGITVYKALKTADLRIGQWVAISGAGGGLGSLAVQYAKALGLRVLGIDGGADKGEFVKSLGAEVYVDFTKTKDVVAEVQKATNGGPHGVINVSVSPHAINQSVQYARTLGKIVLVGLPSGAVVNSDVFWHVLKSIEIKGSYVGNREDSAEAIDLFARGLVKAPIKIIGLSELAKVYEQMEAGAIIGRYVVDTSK
The experiment in a line: NADH and NADPH oxidation at […] nm. The following applies: 0.01-10 mM butyraldehyde, NADH or NADPH, 1 mM ZnCl2, 50 mM HEPES pH 7.5, 30 C. The class given is biochemical.

Regarding `NC(=O)C1=CN([C@@H]2O[C@H](COP(=O)(O)OP(=O)(O)OC[C@H]3O[C@@H](n4cnc5c(N)ncnc54)[C@H](O)[C@@H]3O)[C@@H](O)[C@H]2O)C=CC1` [NADH], the “NADH and NADPH oxidation at 340 nm” value is “Both NADH and NADPH reduced butyraldehyde”.

With `CCCC=O` [butyraldehyde], the “NADH and NADPH oxidation at 340 nm” value was “Both NADH and NADPH reduced butyraldehyde”.

For the origin of these results see publication doi:10.1101/390401v1, “Flux balance analysis predicts NADP phosphatase and NADH kinase are critical to balancing redox during xylose fermentation in Scheffersomyces stipitis” (biorxiv, 2018).
